Tested on: Monocotyledonous and dicotyledonous test plants
Assay: Example B3: herbicidal action prior to emergence (pre-emergence), 96-cell seed trays, 1000 g/ha
Format: in vivo
Set-up: key: 0 is no damage to plant; 5 is total damage to plant
Conditions: 9 days after application; for AGSTE herbicidal effect (visual assessment, scale 0-5): Agrostis tenius (Colonial bentgrass); for AMARE herbicidal effect (visual assessment, scale 0-5): Amaranthus retroflexus (redroot pigweed); for DIGSA herbicidal effect (visual assessment, scale 0-5): Digitaria sanguinalis (hairy finger-grass); for POATR herbicidal effect (visual assessment, scale 0-5): Poa trivialis (rough blue grass); for SETIT herbicidal effect (visual assessment, scale 0-5): Setaria italica (foxtail millet)
Protocol: Monocotyledonous and dicotyledonous test plants were sown in sterilised standard soil in seed trays each with 96 cells. The seed trays were stored under controlled conditions in a climatic chamber for one day (cultivation at 23° C. during the day and 17° C. at night; 13 hours of light; 50-60% humidity). The chemicals were applied to the soil surface. The application was carried out with an aqueous suspension of the test substances, prepared as a formulation in water with 10% dimethyl sulfoxide (CAS RN 67-68-5), to achieve a field equivalent of 1000 l/ha. The application rate of the test substances was 1000 g/ha. The plants were grown on in the climatic chamber for 9 days (cultivation at 24° C. during the day and 19° C. at night; 13 hours of light; 50-60% humidity). A visual assessment of the herbicidal effect was made at 9 days after application. The following scale was used for assessment: 0, 1, 2, 3, 4 and 5 (where 0 is no damage to plant and 5 is total damage to plant).

SMILES	AGSTE herbicidal effect (visual assessment, scale 0-5)	AMARE herbicidal effect (visual assessment, scale 0-5)	DIGSA herbicidal effect (visual assessment, scale 0-5)	POATR herbicidal effect (visual assessment, scale 0-5)	SETIT herbicidal effect (visual assessment, scale 0-5)
Cn1nc(C(F)(F)F)c(C[S+]([O-])c2ncc(Cl)s2)c1[S+](C)[O-] (single isomer, unassigned) [Compound No. 1.090]	5	3	5	4	5
Cn1nc(C(F)(F)F)c(CSc2ncc(Cl)s2)c1OC(CF)CF [Compound No. 1.112]	5	4	5	0	0
Cn1nc(C(F)(F)F)c(C[S+]([O-])c2ncc(Cl)s2)c1[S+](C)[O-] (single isomer, unassigned) [Compound No. 1.091]	5	4	4	0	4
Cn1nc(C(F)(F)F)c(C[S+]([O-])c2ncc(Cl)s2)c1OC(CF)CF (racemic) [Compound 1.113]	5	5	5	4	5
Cn1nc(C(F)(F)F)c(C[S+]([O-])c2ncc(Cl)s2)c1OCCCF (racemic) [Compound 1.103]	5	4	5	5	4
Cn1nc(C(F)(F)F)c(C[S+]([O-])c2ncc(C(F)F)s2)c1OCC(F)(F)F (racemic) [Compound 1.086]	5	5	5	5	4
Cc1cnc(S(=O)(=O)Cc2c(C(F)(F)F)nn(C)c2OCC(F)(F)F)s1 [Compound 1.075]	5	1	0	5	5
C=C(F)COc1c(CS(=O)(=O)c2ncc(Cl)s2)c(C(F)(F)F)nn1C [Compound 1.125]	5	5	5	5	5
Cn1nc(C(F)(F)F)c(CS(=O)(=O)c2ncc(Cl)s2)c1OC(CF)CF [Compound 1.114]	5	5	5	5	5
CC(Oc1c(CSc2ncc(Cl)s2)c(C(F)(F)F)nn1C)C(F)(F)F (racemic) [Compound No. 1.126]	4	4	5	1	4
Cn1nc(C(F)(F)F)c(C[S+]([O-])c2ncc(Cl)s2)c1S(C)(=O)=O (racemic) [Compound No. 1.092]	5	3	5	3	4
CC(Oc1c(CS(=O)(=O)c2ncc(Cl)s2)c(C(F)(F)F)nn1C)C(F)(F)F (racemic) [Compound 1.130]	5	5	5	5	5
Cn1nc(C(F)(F)F)c(CS(=O)(=O)c2ncc(Cl)s2)c1OCCCF [Compound 1.104]	5	5	5	5	5
Cn1cc(C[S+]([O-])c2ncc(Cl)s2)c(C(F)(F)F)n1 (racemic) [Compound 1.106]	0	2	4	5	4
CSc1c(C[S+]([O-])c2ncc(Cl)s2)c(C(F)(F)F)nn1C (racemic) [Compound No. 1.089]	5	5	5	5	5
Cn1cc(C(F)S(=O)(=O)c2ncc(Cl)s2)c(C(F)(F)F)n1 (centres unmarked) [Compound No. 1.110, 5-chloro-2-[fluoro-(1-methyl-3-trifluoromethyl-1H-pyrazol-4-yl)-methanesulfonyl]-thiazole]	0	4	4	4	5
CC(Oc1c(C[S+]([O-])c2ncc(Cl)s2)c(C(F)(F)F)nn1C)C(F)(F)F (mixture of isomers) [Compound 1.127]	5	5	5	5	5
Cn1nc(C(F)(F)F)c(CS(=O)(=O)c2ncc(Cl)s2)c1OCC(F)(F)C(F)F [Compound 1.120]	5	5	5	5	5
CC[S+]([O-])c1c(C[S+]([O-])c2ncc(Cl)s2)c(C(F)(F)F)nn1C (mixture of isomers) [Compound No. 1.078]	5	4	5	5	5
CC(CF)Oc1c(CS(=O)(=O)c2ncc(Cl)s2)c(C(F)(F)F)nn1C (racemic) [Compound 1.133]	5	5	5	5	5
CCS(=O)(=O)c1c(C[S+]([O-])c2ncc(Cl)s2)c(C(F)(F)F)nn1C (racemic) [1.080]	5	4	5	5	5
Cn1nc(C(F)(F)F)c(CS(=O)(=O)c2ncc(Cl)s2)c1S(C)(=O)=O [Compound No. 1.093]	5	4	5	5	3

Source: patent US20090048112A1, “Novel Herbicides” (SYNGENTA LIMITED, priority 2005, published 2009)
